Assay results as given in patent US8759535B2, “Substituted fused imidazole derivatives, pharmaceutical compositions, and methods of use thereof” (High Point Pharmaceuticals, LLC, priority 2010, dated 2014).
Counter-ions that a name gives are not always drawn.

Tested on: HMOX1
Assay: HMOX1 Protein Assay (immunostaining of HO-1 in NHLF cells, GE InCell 1000)
Assay type: cell-based
Conditions: Homo sapiens, fold change above DMSO treated cells, 3 μM compound (asterisk), 16 h
Summary of the method: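 Fold induction of HO-1 over vehicle, normally at 5 μM compound (asterisk marks 3 μM), in 0.8% DMSO medium. Normal human lung fibroblasts were treated 16 h, then paraformaldehyde-fixed, anti-HO-1/Alexa 488 stained with Hoechst, and read by high-content imaging.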

Structure (SMILES)	fold induction at 3 µM
CN1CCN(C(=O)CCNC(=O)c2ccc3c(c2)nc(Nc2nc4ccc(C(F)(F)F)cc4s2)n3C)CC1 [Example 375, 1-Methyl-2-(6-trifluoromethyl-benzothiazol-2-ylamino)-1H-benzoimidazole-5-carboxylic acid [3-(4-methyl-piperazin-1-yl)-3-oxo-propyl]-amide]	19.4
CN(C)C(=O)CCNC(=O)c1ccc2c(c1)nc(Nc1nc3ccc(C(F)(F)F)cc3s1)n2C [Example 372, 1-Methyl-2-(6-trifluoromethyl-benzothiazol-2-ylamino)-1H-benzoimidazole-5-carboxylic acid (2-dimethylcarbamoyl-ethyl)-amide]	25.5

Same assay, conditions: Homo sapiens, fold change above DMSO treated cells, 5 μM compound, 16 h

Structure (SMILES)	fold induction at 5 µM
Cn1c(Nc2nc3ccc(OC(F)(F)F)cc3s2)nc2cc(C(=O)NC[C@H]3CC[C@H](CO)CC3)ccc21 [Example 254, 1-Methyl-2-(6-trifluoromethoxy-benzothiazol-2-ylamino)-1H-benzoimidazole-5-carboxylic acid (trans-4-hydroxymethyl-cyclohexylmethyl)-amide]	47.4
Cn1c(Nc2nc3ccc(Cl)cc3s2)nc2cc(C(=O)N[C@H]3CC[C@H](C(=O)O)CC3)ccc21 [Example 378, 4-{[2-(6-Chloro-benzothiazol-2-ylamino)-1-methyl-1H-benzoimidazole-5-carbonyl]-amino}-trans-cyclohexanecarboxylic acid]	24.9
Cn1c(Nc2nc3ccc(Cl)cc3s2)nc2cc(C(=O)NC3CCN(S(C)(=O)=O)CC3)ccc21 [Example 320, 2-(6-Chloro-benzothiazol-2-ylamino)-1-methyl-1H-benzoimidazole-5-carboxylic acid (1-methanesulfonyl-piperidin-4-yl)-amide]	20
Cn1c(Nc2nc3ccc(C(F)(F)F)cc3s2)nc2cc(C(=O)NCCOCCO)ccc21 [Example 236, 1-Methyl-2-(6-trifluoromethyl-benzothiazol-2-ylamino)-1H-benzoimidazole-5-carboxylic acid [2-(2-hydroxy-ethoxy)-ethyl]-amide]	45.7
CCSCCNC(=O)c1ccc2c(c1)nc(Nc1nc3ccc(OC(F)(F)F)cc3s1)n2C [Example 107, 1-Methyl-2-(6-trifluoromethoxy-benzothiazol-2-ylamino)-1H-benzoimidazole-5-carboxylic acid (2-ethylsulfanyl-ethyl)-amide]	18.6
Cn1c(Nc2nc3ccc(OC(F)(F)F)cc3s2)nc2cc(C(=O)NCCC#N)ccc21 [Example 212, 1-Methyl-2-(6-trifluoromethoxy-benzothiazol-2-ylamino)-1H-benzoimidazole-5-carboxylic acid (2-cyano-ethyl)-amide]	48.8
Cn1c(Nc2nc3ccc(OC(F)(F)F)cc3s2)nc2cc(C(=O)NCCOCC(F)F)ccc21 [Example 258, 1-Methyl-2-(6-trifluoromethoxy-benzothiazol-2-ylamino)-1H-benzoimidazole-5-carboxylic acid [2-(2,2-difluoro-ethoxy)-ethyl]-amide]	24.6
CN(C)C(=O)CNC(=O)c1ccc2c(c1)nc(Nc1nc3ccc(OC(F)(F)F)cc3s1)n2C [Example 80, 1-Methyl-2-(6-trifluoromethoxy-benzothiazol-2-ylamino)-1H-benzoimidazole-5-carboxylic acid dimethylcarbamoylmethyl-amide]	23.2
COC(=O)c1ccc2c(c1)nc(Nc1nc3ccc(OC(F)(F)F)cc3s1)n2C(C)C [Example 158, 1-Isopropyl-2-(6-trifluoromethoxy-benzothiazol-2-ylamino)-1H-benzoimidazole-5-carboxylic acid methyl ester]	1.7
CNC1CCN(C(=O)CNC(=O)c2ccc3c(c2)nc(Nc2nc4ccc(OC(F)(F)F)cc4s2)n3C)CC1 [Example 453, 1-Methyl-2-(6-trifluoromethoxy-benzothiazol-2-ylamino)-1H-benzoimidazole-5-carboxylic acid [2-(4-methylamino-piperidin-1-yl)-2-oxo-ethyl]-amide hydrochloride]	81.1
Cn1c(Nc2nc3ccc(OC(F)(F)F)cc3s2)nc2cc(C(=O)NCCCCO)c(F)cc21 [Example 222, 6-Fluoro-1-methyl-2-(6-trifluoromethoxy-benzothiazol-2-ylamino)-1H-benzoimidazole-5-carboxylic acid (4-hydroxy-butyl)-amide]	49.9
C[C@H](NC(=O)c1ccc2c(c1)nc(Nc1nc3ccc(OC(F)(F)F)cc3s1)n2C)C(=O)N(C)C [Example 149, 1-Methyl-2-(6-trifluoromethoxy-benzothiazol-2-ylamino)-1H-benzoimidazole-5-carboxylic acid ((S)-1-dimethylcarbamoyl-ethyl)-amide]	38.7
CN(C)C(=O)CNC(=O)c1cc2nc(Nc3nc4ccc(OC(F)(F)F)cc4s3)n(C)c2cc1F [Example 58, 6-Fluoro-1-methyl-2-(6-trifluoromethoxy-benzothiazol-2-ylamino)-1H-benzoimidazole-5-carboxylic acid dimethylcarbamoylmethyl-amide]	32.8
CNC(=O)c1ccc2c(c1)nc(Nc1nc3ccc(OC(F)(F)F)cc3s1)n2C [Example 1, 1-Methyl-2-(6-trifluoromethoxy-benzothiazol-2-ylamino)-1H-benzoimidazole-5-carboxylic acid methyl amide]	19.4
Cn1c(Nc2nc3ccc(OC(F)(F)F)cc3s2)nc2cc(C(=O)N[C@H]3CC[C@H](O)CC3)ccc21 [Example 52, 1-Methyl-2-(6-trifluoromethoxy-benzothiazol-2-ylamino)-1H-benzoimidazole-5-carboxylic acid (trans-4-hydroxy-cyclohexyl)-amide]	10
COC(=O)c1ccc2c(c1)nc(Nc1nc3ccc(S(C)(=O)=O)cc3s1)n2C [Example 113, 2-(6-Methanesulfonyl-benzothiazol-2-ylamino)-1-methyl-1H-benzoimidazole-5-carboxylic acid methyl ester]	27.6
Cn1c(Nc2nc3ccc(OC(F)(F)F)cc3s2)nc2cc(C(=O)NCCOCCNS(C)(=O)=O)ccc21 [Example 276, 1-Methyl-2-(6-trifluoromethoxy-benzothiazol-2-ylamino)-1H-benzoimidazole-5-carboxylic acid [2-(2-methanesulfonylamino-ethoxy)-ethyl]-amide]	61.2
Cn1c(Nc2nc3ccc(Cl)cc3s2)nc2cc(C(=O)NCC(=O)NCCS(C)(=O)=O)ccc21 [Example 383, 2-(6-Chloro-benzothiazol-2-ylamino)-1-methyl-1H-benzoimidazole-5-carboxylic acid [(2-methanesulfonyl-ethylcarbamoyl)-methyl]-amide]	16.4
CN(C(=O)CNC(=O)c1ccc2c(c1)nc(Nc1nc3ccc(Cl)cc3s1)n2C)C1CCCNC1 (stereo not shown) [Example 396, 2-(6-Chloro-benzothiazol-2-ylamino)-1-methyl-1H-benzoimidazole-5-carboxylic acid [(methyl-piperidin-3-yl-carbamoyl)-methyl]-amide hydrochloride]	36
Cn1c(Nc2nc3ccc(Cl)cc3s2)nc2cc(C(=O)NCC(=O)NC3CCOC3)ccc21 (stereo not shown) [Example 384, 2-(6-Chloro-benzothiazol-2-ylamino)-1-methyl-1H-benzoimidazole-5-carboxylic acid [(tetrahydro-furan-3-ylcarbamoyl)-methyl]-amide]	26
